Results as given in patent publication US11452731B2, “Method of treating and preventing loss of cognition” (ENDORECHERCHE, INC., priority 2009, dated 2022).
Where two headings read alike, the source gives them in different places. Marks after values point to notes of the source that are not given here.

Key:
[1] = 3-month treatment of ovariectomized rats: lumbar spine BMD, total body fat, serum cholesterol, ALP (Example 4, experiment 1); format: in vivo, rat; conditions: OVX rats, 3 months; for LUMBAR SPINE BMD / LUMBAR SPINE Prevention of Bone Loss: E2 1 mg/kg, EM-652.HCl 2.5 mg/kg, DHEA 80 mg/kg
Description: (§1) Ten to twelve week-old female Sprague-Dawley rats (Crl:CD(SD)Br) (Charles River Laboratory, St-Constant, Canada) weighing approximately 220-270 g at start of treatment were used. The animals were acclimatized to the environmental conditions (temperature: 22±3° C.; humidity: 50±20%; 12-h light-12-h dark cycles, lights on at 07:15 h) for at least 1 week before starting the experiments. The animals were housed individually and were allowed free access to tap water and a pelleted certified rodent feed (Lab Diet 5002, Ralston Purina, St-Louis, Mo.). Experiments were conducted in an animal facility approved by the Canadian Council on Animal Care (CCAC) and the Association for Assessment and Accreditation of Laboratory Animal Care (AAALAC) in accordance with the CCAC Guide for Care and Use of Experimental Animals.
(§2) On day 1 of the study, the animals of the appropriate groups were bilaterally ovariectomized (OVX) under isoflurane anesthesia. The DHEA was applied topically on the dorsal skin as a solution in 50% ethanol-50% propylene glycol while the other tested compounds were administered as suspension in 0.4% methylcellulose by oral gavage. Treatments were initiated on day 2 of the study and were performed once daily during 3 months.
After 3 months (experiment 1) or 26 weeks (experiment 2) of treatment, individual rats under Isoflurane anesthesia had their whole body skeleton and lumbar spine scanned using dual energy x-ray absorptiometry (DEXA; QDR 4500A, Hologic, Waltham, Mass.) and a Regional High Resolution Scan software. The bone mineral density (BMD) of the lumbar spine (vertebrae L2 to L4) and the total body composition (fat percentage) were determined.
After 3 months (experiment 1) or 26 weeks (experiment 2) of treatment, blood samples were collected at the jugular vein from overnight fasted animals (under Isoflurane anesthesia). Samples were processed for serum preparation and frozen at −80° C. until assay. Serum cholesterol levels and alkaline phospatase activity (ALP) were determined using the Boehringer Mannheim Diagnostic Hitachi 911 Analyzer (Boehringer Mannheim Diagnostic Laboratory Systems).

[2] = 26-week treatment of ovariectomized rats: lumbar spine BMD, total body fat, serum cholesterol, ALP (Example 4, experiment 2); format: in vivo, rat; conditions: OVX rats, 26 weeks
Description: Ten to twelve week-old female Sprague-Dawley rats (Crl:CD(SD)Br) (Charles River Laboratory, St-Constant, Canada) weighing approximately 220-270 g at start of treatment were used. […] The animals were housed individually and were allowed free access to tap water and a pelleted certified rodent feed (Lab Diet 5002, Ralston Purina, St-Louis, Mo.). Experiments were conducted in an animal facility approved by the Canadian Council on Animal Care (CCAC) and the Association for Assessment and Accreditation of Laboratory Animal Care (AAALAC) in accordance with the CCAC Guide for Care and Use of Experimental Animals. […] Treatments were initiated on day 2 of the study and were performed once daily during 26 weeks. In both experiments, animals not receiving a test article were treated with the appropriate vehicle alone during the same period. […] QDR 4500A, Hologic, Waltham, Mass.) and a Regional High Resolution Scan software. […] Samples were processed for serum preparation and frozen at -80° C. until assay. Serum cholesterol levels and alkaline phospatase activity (ALP) were determined using the Boehringer Mannheim Diagnostic Hitachi 911 Analyzer (Boehringer Mannheim Diagnostic Laboratory Systems).

[3] = 5-week treatment of ovariectomized rats with SERMs alone or with DHEA: BMD of lumbar spine, femur, tibia (Example 5); format: in vivo, rat; conditions: OVX rats, 5 weeks; for LUMBAR SPINE (L2-L4) BMD / LUMBAR SPINE (L2-L4) Prevention of Bone Loss: SERMs 2.5 mg/kg, DHEA 80 mg/kg
Description: as §1
as §2, with “(Ovx)” for “(OVX)”, “the” for “the other”, “SERMs” for “compounds”, “5 weeks.” for “3 months.”
After 5 weeks of treatment, individual rats under Isoflurane anesthesia had their lumbar spine, femur and tibia scanned using dual energy x-ray absorptiometry (DEXA; QDR 4500A, Hologic, Waltham, Mass.) and a Regional High Resolution Scan software. The bone mineral density (BMD) of the lumbar spine (vertebrae L2 to L4), distal femoral metaphysis (DFM) and proximal tibial metaphysis (PTM) were determined.

[4] = system: MCF-7 human breast cancer cells; test: Proliferation (DNA content) of human breast cancer MCF-7 cells (Example 7); format: cell-based; conditions: for IC50: Homo sapiens, read-out: Inhibition of 1 nM E2 stimulation of DNA by tested compounds IC50
From the text: MCF-7 human breast cancer cells were obtained from the American Type Culture Collection #HTB 22 at passage 147 and routinely grown in phenol red-free Dulbecco's Modified Eagle's-Ham's F12 medium, the supplements mentioned above and 5% FBS. The MCF-7 human breast adenocarcinoma cell line was derived from the pleural effusion of a patient. MCF-7 cells were used between passages 148 and 165 and subcultured weekly
Thereafter, medium was replaced with fresh medium containing the indicated concentrations of compounds diluted from 1000×stock solutions in 99% redistilled ethanol in the presence or absence of E2. Control cells received only the ethanolic vehicle (0.1% EtOH, v/v). Cells were incubated for the specified time intervals with medium changes at 2- or 3-day intervals. Cell number was determined by measurement of DNA content.
All results are expressed as means±SEM.

[5] = Endometrial epithelium thickness in OVX nude mice after 161 days of antiestrogen (Example 8); format: in vivo
Outline: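 OVX nude mice received antiestrogen with or without an estrone implant; controls were OVX and OVX+Estrone. Antiestrogens were given as suspensions for 161 days. Uteri were then collected and H&E sections analysed by image analysis for mean endometrial epithelial cell height.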

[6] = cited from earlier work
[7] = 6 months; cited from earlier work
[8] = Premarin 0.25 mg/kg, SERMs 2.5 mg/kg

## CC1=C(c2ccc(O)cc2)[C@H](c2ccc(OCCN3CCCCC3)cc2)Oc2cc(O)ccc21.Cl [EM-652.HCl, (S)-(+)-7-hydroxy-3-(4′-hydroxyphenyl)-4-methyl-2-(4″-(2′″-piperidinoethoxy)phenyl)-2H-1-benzopyran hydrochloride]
[1]
  ALP (serum alkaline phosphatase activity): 91 ± 6 IU/L
  CHOLESTEROL (serum): 0.87 ± 0.04 mmol/L
  LUMBAR SPINE BMD: 0.2374 ± 0.0027 g/cm^2
  LUMBAR SPINE Prevention of Bone Loss: 65%
[1]; hydrochloride
  TOTAL FAT: completely prevented
[1]; listed as EM-652•HCl, hydrochloride
  TOTAL FAT: 23.2 ± 1.4 %
[2]
  ALP: 78 ± 4 IU
  CHOLESTEROL (serum): 0.98 ± 0.06 mmol/L
  TOTAL FAT: 27.7 ± 1.4 %
  reversal of the fat increase induced by estrogen deficiency: 78%
[2]; [8]
  LUMBAR SPINE BMD: 0.2311 ± 0.0040 g/cm^2
  LUMBAR SPINE Prevention of Bone Loss: 62%
[3]
  DISTAL FEMORAL METAPHYSIS (DFM) BMD: 0.3008 ± 0.0055 g/cm^2
  DISTAL FEMORAL METAPHYSIS (DFM) Prevention of Bone Loss: 95%
  PROXIMAL TIBIAL METAPHYSIS (PFM) BMD: 0.2806 ± 0.0035 g/cm^2
  PROXIMAL TIBIAL METAPHYSIS (PFM) Prevention of Bone Loss: 92%
  LUMBAR SPINE (L2-L4) BMD: 0.2232 ± 0.0031 g/cm^2
  LUMBAR SPINE (L2-L4) Prevention of Bone Loss: 86%
[4]; MCF7, MCF-7, Experiment 1
  IC50: 0.796 nM
[4]; MCF7, MCF-7, Experiment 2
  IC50: 0.205 nM
[4]; MCF-7, Experiment 1
  Maximal stimulation of DNA by tested compounds % of 1 nM E2 stimulation: N.S.
[4]; MCF-7, Experiment 2
  Stimulation of DNA by tested compounds % of 1 nM E2 stimulation: N.S.
[5]; 50 μg daily oral, estrone stimulation
  inhibition of the stimulatory effect of estrone on epithelial height: 70%
[5]; 200 μg daily, absence of estrone
  height of uterine epithelial cells, % of the OVX control group value: 114%
[5]; OVX + E1, antiestrogen 50 μg daily
  ENDOMETRIAL EPITHELIUM THICKNESS (μm) ± SEM: 25.06^b ± 0.07 μm
[5]; OVX without E1, antiestrogen 200 μg daily
  ENDOMETRIAL EPITHELIUM THICKNESS (μm) ± SEM: 20.79 ± 0.10 μm

## C[C@]12CC[C@H](O)CC1=CC[C@@H]1[C@@H]2CC[C@]2(C)C(=O)CC[C@@H]12 [DHEA, dehydroepiandrosterone]
[1]
  ALP (serum alkaline phosphatase activity): 224±18 IU/L
  CHOLESTEROL (serum): 1.59 ± 0.10 mmol/L
  TOTAL FAT: 17.3 ± 1.5 %
  LUMBAR SPINE BMD: 0.2321 ± 0.0034 g/cm^2
  LUMBAR SPINE Prevention of Bone Loss: 43%
[3]
  DISTAL FEMORAL METAPHYSIS (DFM) BMD: 0.2934 ± 0.0046 g/cm^2
  DISTAL FEMORAL METAPHYSIS (DFM) Prevention of Bone Loss: 71%
  PROXIMAL TIBIAL METAPHYSIS (PFM) BMD: 0.2672 ± 0.0041 g/cm^2
  PROXIMAL TIBIAL METAPHYSIS (PFM) Prevention of Bone Loss: 42%
  LUMBAR SPINE (L2-L4) BMD: 0.2144 ± 0.0028 g/cm^2
  LUMBAR SPINE (L2-L4) Prevention of Bone Loss: 44%
[6]; both women and men
  decrease of abdominal subcutaneous fat: 6%
[6]; in vivo
  decrease of responsiveness of serum insulin to the glucose tolerance test: 13%
  improvement in the insulin sensitivity index: 34%
[6]; men
  decrease of abdominal visceral fat: 7.4%
[6]; women
  decrease of abdominal visceral fat: 10.2%
[7]
  decrease of total body fat mass: 1.4 kg
  increase of fat-free mass: 0.9 kg
